{
  "source": "patent US8758777B2",
  "about": "“Pharmaceutical compositions comprising water-soluble sulfonate-protected nanoparticles and uses thereof” (Bar-Ilan University, priority 2010, dated 2014)",
  "tested_on": "wild-type HSV-1 McIntyre strain",
  "assay": "Antiviral assay (plaque reduction) in Vero cells",
  "format": "cell-based, herpes simplex virus-1 (HSV-1)",
  "details": "50-1000 μg/ml; 80 PFU; 48 hours",
  "procedure": "Antiviral assay: The virus used was the wild-type HSV-1 McIntyre strain. For the inhibition experiments, 7×10^4 Vero cells/well were grown in 24 well plates.\nCell monolayers were infected with HSV-1 in the presence or absence of the nanoparticles, as described in the antiviral assay in the Experimental, and observed for the presence of plaques after 48 hours. Plaque formation was obtained by the addition of γ-globulins, which prevents virus dissemination while retaining cell-to-cell spread. FIG. 3A (panels a-h) show images of the cell cultures after 48 hours.",
  "data": [
    {"smiles": "O=S(=O)([O-])CCS.[Na+]", "note": "[soluble MES, sodium 2-mercaptoethanesulfonate]", "values": [
      {"measurement": "inhibition of virus infection (number of plaques and average size)", "value": "completely ineffective"}
    ]}
  ]
}
